We go through seven molecules from ChEMBL document CHEMBL4602638, “Propargylglycine-based antimicrobial compounds are targets of TolC-dependent efflux systems in Escherichia coli” (Bioorg Med Chem Lett, 2020).

The term logP denotes a log measure of how a compound divides between an organic and an aqueous phase. Low values mean lower lipophilicity, high ones higher lipophilicity.

The nature of data set [1]: Lipophilicity, logP of compound. Particulars: octanol/water. In kind it is physicochemical.
In data set [2] the target is T1, UDP-3-O-acyl-N-acetylglucosamine deacetylase (Escherichia coli K-12) (UniProt P0A725).
T1 sequence (whole entry): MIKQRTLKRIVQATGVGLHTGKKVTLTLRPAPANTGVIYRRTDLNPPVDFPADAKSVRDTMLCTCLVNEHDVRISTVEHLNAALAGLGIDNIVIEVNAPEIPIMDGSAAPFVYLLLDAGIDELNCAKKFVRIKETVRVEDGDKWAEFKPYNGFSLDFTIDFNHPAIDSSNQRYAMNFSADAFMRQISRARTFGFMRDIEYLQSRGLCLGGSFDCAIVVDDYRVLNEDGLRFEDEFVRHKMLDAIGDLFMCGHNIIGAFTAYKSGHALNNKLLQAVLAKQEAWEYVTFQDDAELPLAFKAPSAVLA
Put plainly: Inhibition of LpxC in Escherichia coli harboring deltaACRB mutant assessed as reduction in bacterial growth measured after 20 hrs by CLSI protocol based microbroth dilution method. On the technique in general: Broth dilution looks for growth in wells or tubes with falling amounts of substance.

Data set [3] concerns the target T2, UDP-3-O-acyl-N-acetylglucosamine deacetylase (Pseudomonas aeruginosa (strain ATCC 15692 / PAO1 / 1C / PRS 101 / LMG12228)) (UniProt P47205).
T2 sequence (whole entry): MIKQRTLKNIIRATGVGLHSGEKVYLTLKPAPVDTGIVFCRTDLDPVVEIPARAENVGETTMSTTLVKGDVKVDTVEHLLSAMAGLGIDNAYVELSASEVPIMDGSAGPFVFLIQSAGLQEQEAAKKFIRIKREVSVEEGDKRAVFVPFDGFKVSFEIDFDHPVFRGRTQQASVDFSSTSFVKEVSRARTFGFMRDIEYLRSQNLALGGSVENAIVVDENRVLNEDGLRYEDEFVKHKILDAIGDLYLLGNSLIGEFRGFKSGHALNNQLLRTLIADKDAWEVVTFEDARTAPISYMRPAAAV
Put plainly: Inhibition of LpxC in Pseudomonas aeruginosa assessed as delay in bacterial growth at 25 to 50 ug/ml measured after 20 hrs by CLSI protocol based microbroth dilution method.

In data set [4] the target is T1, UDP-3-O-acyl-N-acetylglucosamine deacetylase (Escherichia coli K-12). Put plainly: Inhibition of LpxC in Escherichia coli harboring deltaTolC mutant assessed as reduction in bacterial growth measured after 20 hrs by CLSI protocol based microbroth dilution method.
Data set [5] concerns the target T2, UDP-3-O-acyl-N-acetylglucosamine deacetylase (Pseudomonas aeruginosa (strain ATCC 15692 / PAO1 / 1C / PRS 101 / LMG12228)). Put plainly: Inhibition of LpxC in Pseudomonas aeruginosa assessed as reduction in bacterial growth measured after 20 hrs by CLSI protocol based microbroth dilution method.
Data set [6] concerns the target T1, UDP-3-O-acyl-N-acetylglucosamine deacetylase (Escherichia coli K-12). Put plainly: Inhibition of LpxC in Escherichia coli assessed as reduction in bacterial growth at 160 ug/ml measured after 20 hrs by CLSI protocol based microbroth dilution method.
The target is the same in data set [7]. Put plainly: Inhibition of LpxC in Escherichia coli expressing deltaCdelta4LFhuA assessed as reduction in bacterial growth measured after 20 hrs by CLSI protocol based microbroth dilution method.
Data set [8] shares this target. Put plainly: Inhibition of LpxC in Escherichia coli assessed as reduction in bacterial growth measured after 20 hrs by CLSI protocol based microbroth dilution method.
Data set [9] shares this target. Put plainly: Inhibition of LpxC in Escherichia coli expressing deltaCdelta4LFhuA and harboring deltaTolC mutant assessed as reduction in bacterial growth measured after 20 hrs by CLSI protocol based microbroth dilution method.
Data set [10] has the same target. Put plainly: Inhibition of LpxC in Escherichia coli expressing deltaCdelta4LFhuA and harboring deltaACRB mutant assessed as reduction in bacterial growth measured after 20 hrs by CLSI protocol based microbroth dilution method.
The target is the same in data set [11]. Put plainly: Inhibition of LpxC in Escherichia coli assessed as reduction in bacterial growth at 80 ug/ml measured after 20 hrs by CLSI protocol based microbroth dilution method.
The target is the same in data set [12]. Put plainly: Inhibition of LpxC in Escherichia coli expressing deltaCdelta4LFhuA assessed as reduction in bacterial growth at 80 ug/ml measured after 20 hrs by CLSI protocol based microbroth dilution method.

In brackets after ≈: the same amount, converted by molar mass. Activity calls are given as the source filed them. The calls are words filed in the database; no cut-off is given here.

With `N[C@@H](Cc1cn(C[C@H]2O[C@@H](n3ccc(=O)[nH]c3=O)[C@H](O)[C@@H]2O)nn1)C(=O)NO`, the logP in data set [1] is -3.52.

Turning to `C#CC[C@H](NC(=O)c1ccc(OCC#CC)cc1)C(=O)NO`, the MIC is 80 µg/mL (≈ 266 µM) in data set [2]; 80 µg/mL (≈ 266 µM) in [4]; 100 µg/mL (≈ 333 µM) in data set [5]; 100 µg/mL (≈ 333 µM) in data set [7]; over 160 µg/mL in data set [8]. The inhibition entry in data set [3] was “Active”. The molecule further returned a logP in data set [1] of 1.29. In addition, the inhibition entry in data set [6] was “inactive”. Further, in [8], the inhibition entry was “Dose-dependent effect”.

In data set [1], `C#CC[C@H](NC(=O)c1ccccc1)C(=O)NO` gave a logP of 0.61.

Regarding `CC#CCOc1ccc(C(=O)N[C@@H](Cc2cn(C[C@H]3O[C@@H](n4ccc(=O)[nH]c4=O)[C@H](O)[C@@H]3O)nn2)C(=O)NO)cc1`, the logP in data set [1] was -1.69.

The molecule `O=C(N[C@@H](Cc1cn(C[C@H]2O[C@@H](n3ccc(=O)[nH]c3=O)[C@H](O)[C@@H]2O)nn1)C(=O)NO)c1ccc(-c2ccccc2)cc1` had a logP in [1] of -0.01.

As for `C#CC[C@H](NC(=O)c1ccc(-c2ccccc2)cc1)C(=O)NO`, the MIC in [2] was 32 µg/mL (≈ 104 µM); in [4] it was 16 µg/mL (≈ 51.9 µM). Also, the inhibition entry in data set [2] is “Dose-dependent effect”. For the same molecule, the inhibition result in [9] and in data set [10] was “Active” in each case. Moreover, in data set [1], the logP was 2.28. In addition, the inhibition entry in data set [11] and in [12] was “inactive” throughout.

In [1], `CC#CCOc1ccc(C(=O)N[C@H](C(=O)NO)C(C)(C)N)cc1` had a logP of 0.44.
